Measurements as given in US9096583B2, “Substituted 1,2,5-oxadiazole compounds and their use as herbicides II” (BASF SE, priority 2011, dated 2015).

Columns and labels:
[1] = system: ALOMY; experiment: greenhouse post-emergence herbicidal test, ALOMY; type: in vivo, Alopecurus myosuroides; details: post-emergence method, application rate 0.25 kg/ha, scale from 0 to 100
Description: (§1) The seeds of the test plants were sown separately for each species. For the post-emergence treatment, the test plants were first grown to a height of 3 to 15 cm, depending on the plant habit, and only then treated with the active ingredients which had been suspended or emulsified in water. For this purpose, the test plants were either sown directly and grown in the same containers, or they were first grown separately as seedlings and transplanted into the test containers a few days prior to treatment. Depending on the species, the plants were kept at 10-25° C. or 20-35° C. The test period extended over 2 to 4 weeks. During this time, the plants were tended, and their response to the individual treatments was evaluated. Evaluation was carried out using a scale from 0 to 100. 100 means no emergence of the plants, or complete destruction of at least the aerial moieties, and 0 means no damage, or normal course of growth. A good herbicidal activity is given at values of at least 70 and a very good herbicidal activity is given at values of at least 85. [table]

[2] = system: ABUTH; experiment: greenhouse post-emergence herbicidal test, ABUTH; type: in vivo, Abutilon theophrasti; details: post-emergence method, application rate 1 kg/ha, scale from 0 to 100
Description: as §1

Row | SMILES | herbicidal activity against ALOMY [1] | herbicidal activity against ABUTH [2]
1 | COc1nonc1NC(=O)c1ccc2c(c1Cl)S(=O)(=O)CCC2(C)C [I″.A-8] | very good herbicidal activity (a very good herbicidal activity is given at values of at least 85) | 
2 | Cc1nonc1NC(=O)c1ccc(Cl)c2ncccc12 [I′.A-113] |  | good herbicidal activity (A good herbicidal activity is given at values of at least 70)
